Measured values reported in ChEMBL document CHEMBL1141328, “Biologically active aspidofractinine, rhazinilam, akuammiline, and vincorine alkaloids from Kopsia” (J Nat Prod, 2007).

Assays:
Assay type in all cases: functional, cell-based
[1] = Cytotoxicity against vincristine-resistant human KB/VJ300 cells
[2] = Cytotoxicity against vincristine-resistant human KB/VJ300 cells in presence of 0.121 uM vincristine
KB [3] = assay: Cytotoxicity against vincristine-resistant human KB cells
[4] = Cytotoxicity against human KB/VJ300 cells
KB [5] = assay: Cytotoxicity against human KB cells

SMILES: CC[C@@]12CCC(=O)Nc3ccccc3-c3ccn(c31)C(=O)CC2 [RHAZINICINE]
- IC50 [1]: 8.12 µM
- IC50 [2]: 6.01 µM
- IC50 (KB [3]): 4060 nM

SMILES: CC[C@]12CCCn3ccc(c31)-c1ccccc1NC(=O)CC2 [RHAZINILAM]
- IC50 [1]: 0.83 µM
- IC50 [2]: 1.16 µM
- IC50 (KB [3]): 650 nM

SMILES: CC[C@]1(O)C[C@H]2CN(CCc3c([nH]c4ccccc34)[C@@](C(=O)OC)(c3cc4c(cc3OC)N(C=O)[C@H]3[C@@](O)(C(=O)OC)[C@H](OC(C)=O)[C@]5(CC)C=CCN6CC[C@]43[C@@H]65)C2)C1 [VINCRISTINE]
- IC50 [4]: 1200 nM
- IC50 (KB [5]): 2.8 nM

SMILES: COC(=O)N1c2c(OC)cccc2[C@@]23CCN4CC[C@H](O)[C@@]5(CC[C@]12[C@](O)(C(=O)OC)[C@H]5O)[C@H]43 [KOPSILOSCINE F]
- IC50 [1]: > 25 µg/mL
- IC50 [2]: > 25 µg/mL
- IC50 (KB [3]): > 25 µg/mL

SMILES: COC(=O)N1c2ccc(OC)cc2[C@@]23CCN4CCC[C@]5(CC[C@]12[C@](O)(C(=O)OC)[C@H]5O)[C@H]43 [KOPSILOSCINE D]
- IC50 [1]: > 25 µg/mL
- IC50 [2]: 25.1 µM
- IC50 (KB [3]): > 25 µg/mL

SMILES: C/C=C1/CN2CC[C@@]34c5ccccc5C[C@@]23CC[C@H]1C4(CO)C(=O)OC (stereo partly specified) [VINCOPHYLLINE]
- IC50 [1]: > 25 µg/mL
- IC50 [2]: > 25 µg/mL
- IC50 (KB [3]): > 25 µg/mL

SMILES: COC(=O)N1c2ccccc2[C@@]23CCN4CC[C@H](O)[C@@]5(CC[C@]12[C@](O)(C(=O)OC)[C@H]5O)[C@H]43 [KOPSILOSCINE C]
- IC50 [1]: > 25 µg/mL
- IC50 [2]: > 25 µg/mL
- IC50 (KB [3]): > 25 µg/mL

SMILES: CC[C@]12CCCn3c(C=O)cc(c31)-c1ccccc1NC(=O)CC2 [RHAZINAL]
- IC50 [1]: 0.76 µM
- IC50 [2]: 0.93 µM
- IC50 (KB [3]): 730 nM

SMILES: C/C=C1/CN(C=O)[C@H]2C[C@H]1C(C(=O)OC)[C@@]13CCO[C@@]21Nc1ccccc13 (stereo partly specified) [ASPIDOPHYLLINE A]
- IC50 [1]: > 25 µg/mL
- IC50 [2]: 29.1 µM
- IC50 (KB [3]): > 25 µg/mL

SMILES: COC(=O)N1c2ccccc2[C@@]23CCN4CC=C[C@]5(CC[C@]12C(O)(C(=O)OC)C5O)[C@H]43 (stereo partly specified) [KOPSILOSCINE A]
- IC50 [1]: 42.3 µM
- IC50 [2]: 8.9 µM
- IC50 (KB [3]): 45800 nM

SMILES: COC(=O)[C@H]1C[C@@]23CCCN4CC[C@@]5(c6ccccc6N[C@]15CC2)[C@@H]43
- IC50 [1]: > 25 µg/mL
- IC50 [2]: > 25 µg/mL
- IC50 (KB [3]): > 25 µg/mL

SMILES: COC(=O)N1c2ccccc2[C@@]23CCN4CCC[C@]5(CC[C@]12[C@](O)(C(=O)OC)[C@H]5O)[C@H]43 [KOPSILOSCINE B]
- IC50 [1]: > 25 µg/mL
- IC50 [2]: 11.7 µM
- IC50 (KB [3]): > 25 µg/mL

SMILES: COC(=O)N1c2ccc(OC)cc2[C@@]23CCN4CC[C@H](O)[C@@]5(CC[C@]12[C@](O)(C(=O)OC)[C@H]5O)[C@H]43 [KOPSILOSCINE E]
- IC50 [1]: > 25 µg/mL
- IC50 [2]: > 25 µg/mL
- IC50 (KB [3]): > 25 µg/mL

SMILES: C/C=C1/CN2CC[C@]34C(=Nc5ccccc53)[C@@H]2C[C@H]1C4(C(=O)OC)C(=O)OC(C)=O (stereo partly specified)
- IC50 [1]: > 25 µg/mL
- IC50 [2]: > 25 µg/mL
- IC50 (KB [3]): > 25 µg/mL
